Results published in patent US12115193B2, “Methods of using RARγ agonists for cancer treatment” (Io Therapeutics, Inc., priority 2021, dated 2024).

Legend:
RARγ = target: T1, RARγ (Homo sapiens, UniProt P13631); test: RARγ transactivation assay (luciferase reporter); type: cell-based
T1 construct: expression plasmids encoding the full-length receptors RARα and RARγ; expressed in transfected cells
T1 sequence (P13631 1-454): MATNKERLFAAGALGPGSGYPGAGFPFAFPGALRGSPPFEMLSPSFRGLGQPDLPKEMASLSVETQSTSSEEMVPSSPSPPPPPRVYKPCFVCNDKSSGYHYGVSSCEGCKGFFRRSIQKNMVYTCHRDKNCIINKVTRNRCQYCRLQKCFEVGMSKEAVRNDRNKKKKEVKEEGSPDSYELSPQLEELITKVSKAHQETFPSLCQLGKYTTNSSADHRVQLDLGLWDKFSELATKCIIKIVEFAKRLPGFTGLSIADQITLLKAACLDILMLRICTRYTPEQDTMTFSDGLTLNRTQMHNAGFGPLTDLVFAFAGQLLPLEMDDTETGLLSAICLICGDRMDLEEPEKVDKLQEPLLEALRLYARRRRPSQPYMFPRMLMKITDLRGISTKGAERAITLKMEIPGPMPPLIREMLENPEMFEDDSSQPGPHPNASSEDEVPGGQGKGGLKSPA
Description: Transactivation assays were conducted to test the specificity of binding activity of GA1E and GA2E for RARα and RARγ. Retinoic acid receptor transactivation activity and binding efficiencies were determined essentially as described in U.S. Pat. Nos. 5,298,429 and 5,071,773, incorporated by reference herein for all they teach regarding transactivation assays. Transactivation assays employed expression plasmids encoding the full-length receptors RARα and RARγ. Reporter plasmids containing the herpes virus thymidine kinase promoter and the appropriate retinoic acid receptor response element (RAREs) were positioned upstream of an open coding region encoding firefly luciferase.
The ability of GA1E and GA2E to activate RARα and RARγ in a transactivation assay was tested over a concentration range of 0.5 to 625 nM (GA2E) or 0.05 to 3320 nM (GA1E). GA1E induced less than 10% transactivation for RARα across the whole concentration range, but over 50% transactivation for RARγ at concentrations ≥25 nM and over 70% at concentrations 125 nM (FIG. 3A). GA2E induced more than 85% transactivation at all tested concentrations and less than 10% transactivation of RARα at concentrations of ≤25 nM (FIG. 3B).

[1] = test system: Lewis lung carcinoma (LLC) cells; test: Lewis lung carcinoma in vitro culture viability, Cell Titer Glo Assay; type: cell-based, mouse; details: for IC50: Mus musculus, Lewis lung carcinoma
Description: Lewis lung carcinoma (LLC) cells were cultured in vitro the presence of a multiple concentrations of the RARγ agonists GA1E, GA2E, and GA3Ep and viability assessed by the Cell Titer Glo Assay®.

EMT6 cells [2] = test: EMT6 in vitro culture viability, Cell Titer Glo Assay; type: cell-based, mouse; details: 5 days; for IC50: Mus musculus, 120 h
Description: EMT6 cells were cultured in vitro for 5 days the presence of a multiple concentrations of the RARγ agonists GA1E, GA2E, and GA3Ep and viability assessed by the Cell Titer Glo Assay® (Promega).

PBMC = test: CMV recall antigen-stimulated PBMC: IFNγ production and CFSE proliferation; type: cell-based; details: four days, vs vehicle control; for IFNγ production: 0.1 to 1000 nM; for Proliferation of CD8+ cells (CFSE dilution): increase small
Description: Peripheral blood mononuclear cells (PBMC) from a cytomegalovirus (CMV)-positive donor were labeled with carboxyfluorescein succinimidyl ester (CFSE) and stimulated with CMV recall antigens at […]. The PBMC were then treated with one of three difference RARγ selective agonists or vehicle (DMSO) control and incubated at 37° C., 5% CO2 for four days. Culture supernatant was harvested and assayed for IFNγ production and the PBMC evaluated for proliferation by flow cytometry for CFSE dilution.
CFSE is a fluorescent reactive cell membrane permeable dye. After it is taken up, CFSE covalently modifies proteins and is retained in cells for long periods of time. The CFSE-modified proteins are generally evenly divided between daughter cells at each division so that fluorescent intensity of the cells falls by have at each division. Thus diminution of the dye's fluorescent signal can be used as a measure of proliferation.

TIL in EMT6 tumors = test: Flow cytometry of excised EMT6 tumors (Example 4); type: in vivo, mouse
Description: At the end of the study of Example 3, the tumors were excised, the cells disaggregated and dispersed without use of proteases, stained with various agents, and subjected to flow cytometry. FIG. 5A-B present the results of the flow cytometry both as a percentage of cells and as the number of cells per tumor. […] Of these live cells, a substantial proportion were leukocytes (FIG. 5A, “CD45” panels). […] The majority of the T cells were CD4+(FIG. 5A, “CD4” panels), expected to be predominantly helper cells. Of the CD4^+ cells, only small proportions were T memory cells (expected to be predominantly TH1 memory cells) based on intracellular staining for IFNγ (FIG. 5B, “TH IFGγ” panels), TH17 cells based in intracellular staining for IL-17 (FIG. 5B, “TH IL17” panels), or Treg cell based on staining for CD25 and FoxP3 (FIG. 5B, “Treg” panels). About 25-30% of the T cells were CD8^+ (FIG. 5B, “CD8 T” panels), expected to be predominantly cytotoxic cells.

EMT6 cells [3] = test: EMT6 syngeneic mouse model of triple negative breast cancer (Example 3); type: in vivo; details: 21 daily oral doses 10 mg/kg; at the end of the study
Description: The RARγ agonists tazarotenic acid and GA2E were evaluated in the EMT6 syngeneic mouse model of breast cancer. 5×10^5 EMT6 cells were injected into the mammary fat pad of immunocompetent female Balb/c mice. When the tumors reached an average volume of 50-150 mm^3, mice were matched by tumor size into control or treatment groups (n=10-11).
The mice were treated with 21 daily oral doses 10 mg/kg of 1 mg/ml tazarotenic acid or GA2E, or vehicle control, starting on Day 0. Tumor volume was measured, and the mice weighed, on days 0, 1, 3, 6, 8, 10, 13, 15, 17, 20, and 21.

| SMILES | transactivation for RARγ (RARγ; at concentrations 125 nM) | transactivation for RARγ (RARγ; at concentrations ≥25 nM) | effect on viability as concentrations exceeded 10 μM [1] | effect on viability at concentrations below 1 μM [1] | IC50 [1] [µM] | effect on viability as concentrations exceeded 10 μM (EMT6 cells [2]) | effect on viability at concentrations below 1 μM (EMT6 cells [2]) | IC50 (EMT6 cells [2]) [µM] | IFNγ production (PBMC) | Proliferation of CD8+ cells (CFSE dilution) (PBMC) | T cells (anti-CD3) as mean percentage of the leukocytes in the tumor (TIL in EMT6 tumors; 10 mg/kg oral daily, end of study) [%] | proportion of CD8+ T cells that were memory cells (intracellular IFNγ) (TIL in EMT6 tumors; vs vehicle control, did not achieve statistical significance) | tumor growth inhibition (EMT6 cells [3]) [%] |
| --- | --- | --- | --- | --- | --- | --- | --- | --- | --- | --- | --- | --- | --- |
| CCc1oc2ccc(C(/C=C/c3ccc(C(=O)O)cc3F)=N/O)cc2c1C(C)(C)C [GA1E, 4-((1E,3E)-3-(3-(tert-butyl)-2-ethyl-benzofuran-5-yl)-3-(hydroxyimino)prop-1-en-1-yl)-3-fluorobenzoic acid] | over 70% | over 50% | rapidly became toxic | no effect | 96 | rapidly became toxic | no effect | 52 | – | – | – | – | – |
| CC1(C)CCC(C)(C)c2cc(C(/C=C/c3ccc(C(=O)O)cc3)=N/O)ccc21 [GA3Ep] | – | – | rapidly became toxic | no effect | 45 | rapidly became toxic | no effect | 101 | increased IFNγ production substantially | increased | – | – | – |
| CC1(C)CCSc2ccc(C#Cc3ccc(C(=O)O)cn3)cc21 [tazarotenic acid, reference compound] | – | – | – | – | – | – | – | – | increased IFNγ production substantially | increased | ~10 | numerically increased | 44 |
